Laboratory results published in paper PMC7688903 (Frontiers in Microbiology, 2020).
Values after ≈ are worked out from the molar mass of the structure shown. Marks after values point to notes of the source that are not given here. Where a SMILES comes first, the peptide text is derived from it. [ ]: non-standard residue; d: D form. hArg = N=C(N)NCCCC[C@H](N)C(=O)O; 2Thi = N[C@@H](Cc1cccs1)C(=O)O; Dab = NCC[C@H](N)C(=O)O; Dap = NC[C@H](N)C(=O)O

Legend:
C. albicans ATCC 10231 = assay: microbe, parasite or virus in culture; assay type: cell-based, Candida albicans; settings: ATCC 10231, 48 h
In short: (§1)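 Inocula were set to 0.5 McFarland and diluted to ~5 × 10^5 CFU/mL (bacteria, MH broth) or 0.5 × 10^3 to 2.5 × 10^3 CFU/mL (yeast, RPMI 1640). Peptide twofold dilutions were added, plates incubated 20 h at 37°C or 48 h at 35°C, then scored by eye.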

human erythrocytes = assay: Hemolytic activity assay; assay type: cell-based; settings: human RBC in PB, 37°C, 1 h, OD420, total lysis control 0.1% SDS, three technical replicates
In short: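 Washed RBCs from a healthy volunteer were incubated with peptides at 32–128 μM for 1 h at 37°C in PB. Hemoglobin release into the supernatant was read as OD420 against total lysis with 0.1% SDS, in three technical replicates.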

A. baumannii ATCC 19606 = assay type: cell-based, Acinetobacter baumannii; settings: ATCC 19606, 20 h
In short: as §1

[1] = system: carbapenem-resistant A. baumannii (CRAB) SIPI-025; assay type: cell-based, Acinetobacter baumannii; settings: carbapenem-resistant (CRAB) SIPI-025, 20 h
In short: as §1

E. coli ATCC 25922 = assay type: cell-based, Escherichia coli; settings: ATCC 25922, 20 h
In short: as §1

[2] = system: proteases secreted by S. aureus ATCC 25923; assay: in vitro; settings: S. aureus ATCC 25923 culture supernatant, pH 8
In short: (§2)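 Cell-free culture supernatants (overnight, 37°C; MH broth for bacteria, 2% tryptone/2% dextrose for yeast) were centrifuged, adjusted to pH 8.0 and 0.22 μm filtered. Peptides at 0.5 mg/mL were incubated in supernatant 24 h at 37°C; remaining intact peptide measured by RP-HPLC, with peptide-free supernatant as negative control.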

[3] = system: proteases secreted by P. aeruginosa ATCC 27853; assay: in vitro; settings: P. aeruginosa ATCC 27853 culture supernatant, pH 8
In short: as §2

[4] = system: proteases secreted by A. baumannii ATCC 19606; assay: in vitro; settings: A. baumannii ATCC 19606 culture supernatant, pH 8
In short: as §2

S. aureus ATCC 25923 = assay: microbe, parasite or virus in culture; assay type: cell-based, Staphylococcus aureus; settings: ATCC 25923, 20 h
In short: as §1

RAW 264.7 cells = assay: Cell viability assay (MTT); assay type: cell-based, mouse; settings: 1–128 μM peptide in DMEM with 4% FBS, 42 h, 595 nm, triplicate
In short: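 RAW 264.7 cells (1 × 10^4/well, DMEM + 10% FBS) grown overnight to 80% confluency, then exposed to peptides at 1–128 μM in DMEM with 4% FBS for 42 h at 37 °C. MTT read at 595 nm; viability relative to medium-only controls, triplicate, IC50 as 50% loss of viability.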

P. aeruginosa ATCC 27853 = assay type: cell-based, Pseudomonas aeruginosa; settings: ATCC 27853, 20 h
In short: as §1

[5] = system: carbapenem-resistant P. aeruginosa (CRPA) SIPI-012; assay type: cell-based, Pseudomonas aeruginosa; settings: carbapenem-resistant (CRPA) SIPI-012, 20 h
In short: as §1

[6] = system: proteases secreted by C. albicans ATCC 10231; assay: in vitro; settings: C. albicans ATCC 10231 culture supernatant, pH 8
In short: as §2

human plasma proteases = assay: in vitro

SMILES | MIC (C. albicans ATCC 10231) [µg/mL] | Hemolysis rate (%) (human erythrocytes; 64 μM) | Hemolysis rate (%) (human erythrocytes; 128 μM) | MIC (A. baumannii ATCC 19606) [µg/mL] | MIC [1] [µg/mL] | MIC (E. coli ATCC 25922) [µg/mL] | remaining at 24 h, 0.5 mg/mL [2] [%] | remaining at 24 h, 0.5 mg/mL [3] [%] | remaining at 24 h, 0.5 mg/mL [4] [%] | MIC (S. aureus ATCC 25923) [µg/mL] | IC50 (RAW 264.7 cells) [µM] | MIC (P. aeruginosa ATCC 27853) [µg/mL] | MIC [5] [µg/mL] | remaining at 24 h, 0.5 mg/mL [6] [%] | remaining at 24 h, 0.5 mg/mL ([6]; Candida albicans) [%] | remaining at 24 h, 0.5 mg/mL ([2]; Staphylococcus aureus) [%] | metabolised at 2 h, 0.1 mg/mL (human plasma proteases) [%] | metabolised at 4 h, 0.1 mg/mL (human plasma proteases) [%] | remaining at 24 h, 0.5 mg/mL ([4]; Acinetobacter baumannii) [%]
CC(C)C[C@H](NC(=O)[C@H](Cc1ccc(O)cc1)NC(=O)[C@H](CCN)NC(=O)[C@H](CC(C)C)NC(=O)[C@H](CC(C)C)NC(=O)[C@H](CN)NC(=O)[C@H](CN)NC(=O)[C@H](Cc1ccccc1)NC(=O)[C@H](CC(C)C)NC(=O)[C@H](CCCCNC(=N)N)NC(=O)[C@@H](N)CN)C(=O)N[C@@H](CCCCNC(=N)N)C(=O)N[C@@H](CCN)C(=O)N[C@@H](Cc1ccccc1)C(N)=O [UP14] (H-[Dap][hArg]LF[Dap][Dap]LL[Dab]YL[hArg][Dab]F-NH2) | 4 (≈ 2.32 µM) | 66.51 ± 3.14 | 74.68 ± 1.34 % | 4 (≈ 2.32 µM) | 4 (≈ 2.32 µM) | 2 (≈ 1.16 µM) | 57.3 ± 6.54 | 27.6 ± 6.76 | 12.9 ± 1.48 | 0.5 (≈ 0.29 µM) | 14 ± 2.67 | 2 (≈ 1.16 µM) | 8 (≈ 4.63 µM) |  |  |  |  |  | 
CC(C)C[C@H](NC(=O)[C@H](Cc1ccc(O)cc1)NC(=O)[C@H](CCN)NC(=O)[C@H](CC(C)C)NC(=O)[C@H](CC(C)C)NC(=O)[C@H](CCN)NC(=O)[C@H](CCN)NC(=O)[C@H](Cc1ccccc1)NC(=O)[C@H](CC(C)C)NC(=O)[C@H](CCCCNC(=N)N)NC(=O)[C@@H](N)CCN)C(=O)N[C@@H](CCCNC(=N)N)C(=O)N[C@@H](CCN)C(=O)N[C@@H](Cc1ccccc1)C(N)=O [UP12] (H-[Dab][hArg]LF[Dab][Dab]LL[Dab]YLR[Dab]F-NH2) | 4 (≈ 2.28 µM) | 45.13 ± 1.95 | ∼100.00* % | 2 (≈ 1.14 µM) | 4 (≈ 2.28 µM) | 2 (≈ 1.14 µM) | 69.5 ± 5.97 | 20.6 ± 4.3 |  | 1 (≈ 0.57 µM) | 21.2 ± 2.42 | 2 (≈ 1.14 µM) | 4 (≈ 2.28 µM) | 37.7 ± 5.24 |  |  |  |  | 
CC(C)C[C@H](NC(=O)[C@H](Cc1ccc(O)cc1)NC(=O)[C@H](CCN)NC(=O)[C@H](CC(C)C)NC(=O)[C@H](CC(C)C)NC(=O)[C@H](CCN)NC(=O)[C@H](CN)NC(=O)[C@H](Cc1cccs1)NC(=O)[C@H](CC(C)C)NC(=O)[C@H](CCCNC(=N)N)NC(=O)[C@@H](N)CCN)C(=O)N[C@@H](CCCCNC(=N)N)C(=O)N[C@@H](CCN)C(=O)N[C@@H](Cc1ccccc1)C(N)=O [UP15] (H-[Dab]RL[2Thi][Dap][Dab]LL[Dab]YL[hArg][Dab]F-NH2) | 4 (≈ 2.29 µM) | 54.16 ± 2.02 | 97.86 ± 3.07 % | 2 (≈ 1.15 µM) | 2 (≈ 1.15 µM) | 2 (≈ 1.15 µM) |  |  |  | 1 (≈ 0.573 µM) | 28.7 ± 3.52 | 1 (≈ 0.573 µM) | 4 (≈ 2.29 µM) |  | 21.1 ± 5.28 | 54.6 ± 4.19 |  |  | 
CC(C)C[C@H](NC(=O)[C@H](Cc1ccc(O)cc1)NC(=O)[C@H](CCCCN)NC(=O)[C@H](CC(C)C)NC(=O)[C@H](CC(C)C)NC(=O)[C@@H](CCCCN)NC(=O)[C@@H](CCCCN)NC(=O)[C@H](Cc1ccccc1)NC(=O)[C@H](CC(C)C)NC(=O)[C@@H](CCCNC(=N)N)NC(=O)[C@H](N)CCCCN)C(=O)N[C@@H](CCCNC(=N)N)C(=O)N[C@H](CCCCN)C(=O)N[C@@H](Cc1ccccc1)C(N)=O [DP05] (H-[dK][dR]LF[dK][dK]LLKYLR[dK]F-NH2) | 2 (≈ 1.06 µM) | 30.09 ± 1.56 | 45.07 ± 2.93% | 1 (≈ 0.532 µM) | 2 (≈ 1.06 µM) | 2 (≈ 1.06 µM) |  |  |  | 1 (≈ 0.532 µM) | 32.7 ± 3.44 | 1 (≈ 0.532 µM) | 8 (≈ 4.25 µM) |  |  | 66.7 ± 5.9 | > 40 | > 50 | 31.7 ± 9
CC(C)C[C@H](NC(=O)[C@H](Cc1ccc(O)cc1)NC(=O)[C@H](CCN)NC(=O)[C@H](CC(C)C)NC(=O)[C@H](CC(C)C)NC(=O)[C@H](CCN)NC(=O)[C@H](CCN)NC(=O)[C@H](Cc1ccccc1)NC(=O)[C@H](CC(C)C)NC(=O)[C@H](CCCCNC(=N)N)NC(=O)[C@@H](N)CCN)C(=O)N[C@@H](CCCCNC(=N)N)C(=O)N[C@@H](CCN)C(=O)N[C@@H](Cc1ccccc1)C(N)=O [UP13] (H-[Dab][hArg]LF[Dab][Dab]LL[Dab]YL[hArg][Dab]F-NH2) | 4 (≈ 2.26 µM) | 41.03 ± 1.38 | ∼100.00* % | 2 (≈ 1.13 µM) | 2 (≈ 1.13 µM) | 2 (≈ 1.13 µM) |  |  |  | 0.5 (≈ 0.283 µM) | 21.7 ± 4.14 | 2 (≈ 1.13 µM) | 4 (≈ 2.26 µM) |  | 34 ± 6.12 | 78.5 ± 3.39 |  |  | 
